According to patent US12338204B2, “Substituted bisphenylalkylurea compounds and methods of treating breast cancer” (Texas Tech University System, priority 2018, dated 2025):

Assays:
[1] = Ability to cross the blood-brain-barrier; conditions: statement in words, no data shown
[2] = tested on: TNBCs and their metastases; assay: Stopping the growth of TNBCs and their metastases; conditions: statement in words, no data shown

COc1ccc(C(CCCCNC(=O)Nc2ccc(Cl)c([N+](=O)[O-])c2)c2ccc(OC)cc2)cc1 [1-(5,5-bis(4-methoxyphenyl)pentyl)-3-(4-chloro-3-nitrophenyl)urea]
ability to cross the blood-brain-barrier (BBB) [1]: shows the ability to cross the blood-brain-barrier
stopping the growth of TNBCs and their metastases [2]: effective in stopping the growth of TNBCs and their metastases
